Patent US20250353819A1, “ARYL HYDANTOIN COMPOUNDS AND METHODS OF USE” (priority 2022, published 2025)
Several values for one entry are separate records, joined by “and”; a condition that tells them apart may be missing. Equal values may be shown once. Read-outs that look alike come from different tables or passages of the source.

How the values were obtained:
[1] = Pharmacokinetics in male Sprague Dawley rats; type: in vivo, rat; conditions: for AUC: read-out: Plasma AUCoral; for Cmax: read-out: Plasma Cmax; for half-life: plasma; for Plasma Concentration: oral 1 mg/kg
Description: IV and oral formulations were prepared using the same method. On the day of dosing the solid compound was dissolved in DMSO prior to addition of a saline solution (0.9% w/v). The samples were then mixed using vortexing producing colourless solutions. The IV formulation was filtered through a 0.22 μm syringe filter prior to dosing and the oral formulation was dosed without filtration.
Samples of arterial blood were collected up to 168 h post-dose. Urine samples were not collected as animals were housed in bedded cages. Arterial blood was collected directly into borosilicate vials (at 4° C.) containing heparin as anticoagulant. Once collected, blood samples were centrifuged, supernatant plasma was removed and stored frozen (−80° C.) until analysis by LC-MS. A summary of the bioanalytical method and assay validation details is included in Tables 14 and 15.
Plasma concentration versus time data were analysed using non-compartmental methods (PKSolver Version 2.0). Standard calculations for each pharmacokinetic parameter are listed below.

CYP 2D6 = CYP 2D6 (Homo sapiens (Human), UniProt P10635); assay: CYP inhibition in human liver microsomes, 2D6
CYP 3A4 = CYP 3A4 (Homo sapiens (Human), UniProt P08684); assay: CYP inhibition in human liver microsomes, 3A4
[2] = male, Sprague Dawley, rat, in vivo, po, 1 mg/kg, rats, PO 1 mg/kg, individual rats
[3] = male, Sprague Dawley, rat, in vivo, po, 1 mg/kg, rats, PO 1 mg/kg, mean (n = 3)
[4] = rats, IV 1 mg/kg, individual rats
[5] = rats, PO 1 mg/kg, individual rats

Sequence of CYP 3A4 (P08684 whole entry): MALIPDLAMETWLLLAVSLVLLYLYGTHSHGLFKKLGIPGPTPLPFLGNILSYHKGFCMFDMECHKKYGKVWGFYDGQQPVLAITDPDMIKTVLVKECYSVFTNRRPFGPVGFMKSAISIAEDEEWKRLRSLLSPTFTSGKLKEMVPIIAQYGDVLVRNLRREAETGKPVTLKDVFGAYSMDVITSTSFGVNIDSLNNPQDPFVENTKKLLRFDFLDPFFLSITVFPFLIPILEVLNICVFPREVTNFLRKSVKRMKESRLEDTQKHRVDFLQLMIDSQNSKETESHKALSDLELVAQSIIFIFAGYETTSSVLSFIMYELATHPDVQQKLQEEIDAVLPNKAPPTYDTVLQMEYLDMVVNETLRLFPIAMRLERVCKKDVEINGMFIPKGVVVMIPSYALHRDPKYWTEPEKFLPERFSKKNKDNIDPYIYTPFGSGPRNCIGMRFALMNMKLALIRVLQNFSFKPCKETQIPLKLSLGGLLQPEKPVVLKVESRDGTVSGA
Sequence of CYP 2D6 (P10635 whole entry): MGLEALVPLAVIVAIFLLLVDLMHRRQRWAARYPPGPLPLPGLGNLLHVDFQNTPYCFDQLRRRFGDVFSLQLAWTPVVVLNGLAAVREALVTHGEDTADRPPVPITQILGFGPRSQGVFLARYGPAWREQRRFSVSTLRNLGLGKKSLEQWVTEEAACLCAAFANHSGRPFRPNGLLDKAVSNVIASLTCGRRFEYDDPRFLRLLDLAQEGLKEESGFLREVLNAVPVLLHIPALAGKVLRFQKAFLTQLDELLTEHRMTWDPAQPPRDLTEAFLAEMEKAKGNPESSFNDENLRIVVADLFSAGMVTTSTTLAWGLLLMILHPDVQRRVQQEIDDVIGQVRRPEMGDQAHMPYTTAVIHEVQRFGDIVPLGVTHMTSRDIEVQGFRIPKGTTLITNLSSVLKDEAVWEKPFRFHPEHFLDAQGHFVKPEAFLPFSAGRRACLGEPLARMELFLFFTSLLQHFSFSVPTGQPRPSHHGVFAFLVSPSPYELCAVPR

CC1(C)NC(=O)N(c2ccc(F)c(C(C)(F)F)c2)C1=O [Compound IC, 3-(3-(1,1-difluoroethyl)-4-fluorophenyl)-5,5-dimethylimidazolidine-2,4-dione]
Vd ([1]; male, Sprague Dawley, rat, in vivo, iv, 1 mg/kg, rats, IV 1 mg/kg, mean, read-out: Blood Vss): 1.04 L/kg | AUC [1, 2]: 23300 ng·h/mL | Cmax [1, 2]: 614 ng/mL | AUC [1, 3]: 20400 ng·h/mL | Cmax [1, 3]: 572 ng/mL | Tmax ([1]; male, Sprague Dawley, rat, in vivo, po, 1 mg/kg, rats, PO 1 mg/kg, mean (n = 3), read-out: Tmax): 6.7 h | half-life ([1]; male, Sprague Dawley, rat, iv, 1 mg/kg, rats, IV 1 mg/kg, individual rats, read-out: Apparent t1/2 (converted)): 13 h | half-life ([1]; male, Sprague Dawley, rat, iv, 1 mg/kg, rats, IV 1 mg/kg, mean (n = 3), read-out: Apparent t1/2 (converted)): 15 h | half-life ([1]; male, Sprague Dawley, rat, other: IV and oral, 1 mg/kg, rats, following IV and oral administration 1 mg/kg, read-out: apparent half-life): 13 to 19 h | half-life ([1]; male, Sprague Dawley, rat, po, 1 mg/kg, rats, PO 1 mg/kg, individual rats, read-out: Apparent t1/2 (converted)): 16 h | half-life ([1]; male, Sprague Dawley, rat, po, 1 mg/kg, rats, PO 1 mg/kg, mean (n = 3), read-out: Apparent t1/2 (converted)): 16 h | Plasma Concentration ([1]; 1.00 h, individual rats): 614 ng/mL and 430 ng/mL and 184 ng/mL | Plasma Concentration ([1]; 1.00 h, mean): 409 ng/mL | Plasma Concentration ([1]; 2.00 h, individual rats): 612 ng/mL and 506 ng/mL and 427 ng/mL | Plasma Concentration ([1]; 2.00 h, mean): 515 ng/mL | Plasma Concentration ([1]; 4.00 h, individual rats): 545 ng/mL and 477 ng/mL and 474 ng/mL | Plasma Concentration ([1]; 4.00 h, mean): 499 ng/mL | Plasma Concentration ([1]; 7.00 h, individual rats): 612 ng/mL and 559 ng/mL and 455 ng/mL | Plasma Concentration ([1]; 7.00 h, mean): 542 ng/mL | Plasma Concentration ([1]; 24.00 h, individual rats): 365 ng/mL and 309 ng/mL and 390 ng/mL | Plasma Concentration ([1]; 24.00 h, mean): 355 ng/mL | Plasma Concentration ([1]; 36.00 h, individual rats): 294 ng/mL and 183 ng/mL and 254 ng/mL | Plasma Concentration ([1]; 36.00 h, mean): 243 ng/mL | Plasma Concentration ([1]; 48.00 h, individual rats): 188 ng/mL and 94 ng/mL and 170 ng/mL | Plasma Concentration ([1]; 48.00 h, mean): 151 ng/mL | Plasma Concentration ([1]; 72.00 h, individual rats): 82.4 ng/mL and 58.1 ng/mL and 31.5 ng/mL | Plasma Concentration ([1]; 72.00 h, mean): 57 ng/mL | Plasma Concentration ([1]; 96.00 h, individual rats): 32.0 ng/mL and 5.1 ng/mL and 28.5 ng/mL | Plasma Concentration ([1]; 96.00 h, mean): 21.8 ng/mL | Plasma Concentration ([1]; 144.00 h, individual rats): 2.9 ng/mL and 4.4 ng/mL | Plasma Concentration ([1]; 144.00 h, mean): 3.7 ng/mL | adverse reactions or compound-related side effects ([1]; rats, 7-day sampling period after IV or oral 1 mg/kg): no adverse reactions or compound-related side effects | Apparent t1/2 [1, 4]: 14 h | Blood CL [1, 4]: 0.589 mL/min/kg and 0.808 mL/min/kg | Blood Vss [1, 4]: 0.991 L/kg and 1.19 L/kg | Plasma AUCIV [1, 4]: 23600 ng·h/mL and 17200 ng·h/mL | Plasma CL [1, 4]: 0.707 mL/min/kg and 0.970 mL/min/kg | Plasma Vss [1, 4]: 1.19 L/kg and 1.43 L/kg | Apparent t1/2 ([1]; rats, IV 1 mg/kg, mean (n = 3)): 15 h | Plasma AUCIV ([1]; rats, IV 1 mg/kg, mean (n = 3)): 20600 ng·h/mL | time for which measurable plasma concentrations were observed ([1]; rats, IV and oral 1 mg/kg): up to 6 days | Apparent t1/2 [1, 5]: 13 h and 19 h | BA [1, 5]: 113% and 85.5% and 99.2% | Plasma AUCoral [1, 5]: 17600 ng·h/mL | Plasma Cmax [1, 5]: 559 ng/mL and 543 ng/mL | Tmax [1, 5]: 1.0 h and 7.0 h and 12 h | Apparent t1/2 ([1]; rats, PO 1 mg/kg, mean (n = 3)): 16 h | Plasma Cmax ([1]; rats, PO 1 mg/kg, mean (n = 3)): 572 ng/mL | IC50 (CYP 2D6): > 20 µM | IC50 (CYP 3A4): > 20 µM
